# Biological target: T1, VPg unlinkase (Homo sapiens, UniProt O95551)
# T1 construct: To generate the HeLa cell homogenate used for the isolation of VPg unlinkase, 5 ml of packed HeLa cells were homogenized; endogenous in cells; host or cells: HeLa cells (uninfected); enzyme fractionated from total cell homogenate
# T1 sequence (O95551 1-362): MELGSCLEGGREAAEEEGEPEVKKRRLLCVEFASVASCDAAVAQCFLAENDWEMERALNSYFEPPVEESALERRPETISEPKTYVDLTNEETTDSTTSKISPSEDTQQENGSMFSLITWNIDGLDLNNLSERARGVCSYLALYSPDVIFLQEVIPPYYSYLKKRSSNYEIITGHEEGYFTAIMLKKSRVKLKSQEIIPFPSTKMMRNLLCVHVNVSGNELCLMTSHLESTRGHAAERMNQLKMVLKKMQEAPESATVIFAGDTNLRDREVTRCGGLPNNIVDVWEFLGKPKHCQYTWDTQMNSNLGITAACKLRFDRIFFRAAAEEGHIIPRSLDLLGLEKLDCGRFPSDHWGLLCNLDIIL
# Format: biochemical
compound,measurement,value
Cl.Nc1ncnc2c1ncn2[C@@H]1O[C@H](COC(=O)c2ccc(S(=O)(=O)F)cc2)[C@@H](O)[C@H]1O [5′FSBA],suppression of unlinkase activity,effectively suppressed unlinkase activity
